Laboratory results as given in patent US20040146519A1, “Inducing cellular immune responses to carcinoembryonic antigen using peptide and nucleic acid compositions” (priority 2002, published 2004).
pIC50: −log10 of the molar value. Read-outs that look alike come from different tables or passages of the source. Blank lines part the entries; values can stand above or below the molecule they belong to.

What was measured:
HLA-DRB1*0401 = HLA-DRB1*0401 (Homo sapiens, UniProt P01903+P01911, A100K/A169T/F76Y/I96L/K127E/L162R/M171V/N62H/P40V/Q125Y/R42H/S133A/S149N/S66Y/V115G/V209L/W38E); test: HLA class II binding assay, DRB1*0401 (DR4w4)
[1] = system: tumor targets that endogenously express CEA (SW403, HT-20, KATO III); test: 51Cr release against tumor targets (endogenous recognition); type: cell-based, human; conditions: number of donors yielding a positive response/total tested
Procedure: (§1) The colon adenocarcinoma cell lines SW403 and […], the osteosarcoma line Saos-2 and the breast tumor line BT540 were obtained from the American Type Culture Collection (ATCC) (Rockville, Md.). The gastric cancer line, KATO III was obtained from the Japanese Cancer Research Resources Bank. […] The melanoma, colon and gastric cancer cells were treated with 100 U/ml IFN (Genzyme) for 48 hours at 37° C. before use as targets in the ^51Cr release and in situ IFN assays.
Restimulation of the induction cultures with peptide-pulsed adherent cells: Seven and fourteen days after the primary induction the cells were restimulated with peptide-pulsed adherent cells. […] After expansion, activity was measured in both assays for a side by side comparison.
Seven days after the second restimulation, cytotoxicity was determined in a standard (5 hr) ^51Cr release assay by assaying individual wells at a single E:T. Peptide-pulsed targets were prepared by incubating the cells with 10 μg/ml peptide overnight at 37° C.
Adherent target cells were removed from culture flasks with trypsin-EDTA. […] At that time, 100 μl of supernatant were collected from each well and percent lysis was determined according to the formula: [(cpm of the test sample−cpm of the spontaneous ^51Cr release sample)/(cpm of the maximal ^51Cr release sample-cpm of the spontaneous ^51Cr release sample)]×100. […]

[2] = system: .221A2.1 cells pulsed with peptide; test: Primary in vitro CTL induction, 51Cr release against peptide-pulsed targets; type: cell-based, human; conditions: number of donors yielding a positive response/total tested
Procedure: as §1
The monocytes were purified by plating 10×10^6 PBMC/well in a 6-well plate. After 2 hours at 37° C., the non-adherent cells were removed by gently shaking the plates and aspirating the supernatants. The wells were washed a total of three times with 3 ml RPMI to remove most of the non-adherent and loosely adherent cells. Three ml of complete medium containing 50 ng/ml of GM-CSF and 1,000 U/ml of IL-4 were then added to each well. […]
Induction of CTL with DC and Peptide: CD8+ T-cells were isolated by positive selection with Dynal immunomagnetic beads (Dynabeads® M-450) and the detacha-bead® reagent. […] The DC were collected and centrifuged at 1300 rpm for 5-7 minutes, washed once with PBS with 1% BSA, counted and pulsed with 40 μg/ml of peptide at a cell concentration of 1-2×10^6/ml in the presence of 3 μg/ml β2-microglobulin for 4 hours at 20° C. The DC were then irradiated (4,200 rads), washed 1 time with medium and counted again. […]

HLA-DRB1*0301 (DR3) = HLA-DRB1*0301 (DR3) (Homo sapiens, UniProt P01903+P01911, A100K/A102G/A103R/A169T/F55Y/I96L/K41T/L162R/M171V/P40S/Q125H/Q178H/Q39Y/R42S/S66N/T106N/T262R/W38E/Y61H); test: HLA class II binding assay, DRB1*0301 (DR3); conditions: read-out: DR3 binding affinity
HLA-A*3301 = HLA-A*3301 (Homo sapiens, UniProt P04439, A270S/D185E/E176V/E277Q/E87N/F33T/G231S/H175R/I121M/I218V/I322F/K168Q/K210R/L300P/L318F/M331R/P217A/Q86R/Q94H/R138Q/T323A/T345S/T97I/V358M/Y195H); test: HLA class I binding assay, purified HLA-A*3301; conditions: Table XXIII, binding affinity
HLA-A*0301 = HLA-A*0301 (Homo sapiens, UniProt P04439); test: HLA class I binding assay, purified HLA-A*0301; conditions: Table XXIII, binding affinity
HLA-A*6801 = HLA-A*6801 (Homo sapiens, UniProt P04439, A269V/D185E/E176V/E277Q/E87N/F33Y/G231S/I121M/I166T/I218V/L180W/L300P/L318F/N151K/P208A/P217A/Q86R/R169H/T345S); test: HLA class I binding assay, purified HLA-A*6801; conditions: Table XXIII, binding affinity
HLA-A*1101 = HLA-A*1101 (Homo sapiens, UniProt P04439, A114D/D185E/E176A/F33Y/L180Q/S129P/T187R); test: HLA class I binding assay, purified HLA-A*1101; conditions: Table XXIII, binding affinity
[3] = HLA Class II motif and supermotif-bearing epitopes

HLA-A*1101, sequence (P04439 25-365 limits assumed, stated change not applied): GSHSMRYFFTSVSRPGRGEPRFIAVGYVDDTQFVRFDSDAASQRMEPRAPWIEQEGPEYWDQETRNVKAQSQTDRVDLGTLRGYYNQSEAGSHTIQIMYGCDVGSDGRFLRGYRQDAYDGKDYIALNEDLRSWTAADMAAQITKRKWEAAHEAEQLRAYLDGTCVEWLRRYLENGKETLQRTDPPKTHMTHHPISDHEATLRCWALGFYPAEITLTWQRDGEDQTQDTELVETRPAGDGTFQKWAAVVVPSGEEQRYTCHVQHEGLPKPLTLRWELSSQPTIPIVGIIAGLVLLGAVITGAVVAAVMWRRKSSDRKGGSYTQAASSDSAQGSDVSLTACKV
HLA-DRB1*0301 (DR3), sequence (P01903 26-254 limits assumed, other chains not shown): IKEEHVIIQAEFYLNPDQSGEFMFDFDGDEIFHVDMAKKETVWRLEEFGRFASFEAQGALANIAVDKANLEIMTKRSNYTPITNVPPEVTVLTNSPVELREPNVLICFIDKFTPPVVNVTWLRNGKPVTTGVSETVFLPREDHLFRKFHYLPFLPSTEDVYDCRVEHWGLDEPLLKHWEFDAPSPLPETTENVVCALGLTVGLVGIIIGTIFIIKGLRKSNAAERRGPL

pIC50 (HLA-DRB1*0401; DR supertype primary binding, read-out: DR4w4 binding affinity): 5.81
SMILES: CC(C)C[C@H](NC(=O)[C@H](CCCNC(=N)N)NC(=O)[C@@H]1CCCN1C(=O)[C@H](CO)NC(=O)[C@@H](NC(=O)[C@@H]1CCCN1C(=O)[C@H](CC(C)C)NC(=O)[C@H](CO)NC(=O)[C@H](CCC(N)=O)NC(=O)[C@H](CC(N)=O)NC(=O)[C@H](CC(N)=O)NC(=O)[C@@H](NC(=O)[C@H](Cc1c[nH]c2ccccc12)NC(=O)[C@H](Cc1c[nH]c2ccccc12)NC(=O)[C@@H](N)CC(C)C)C(C)C)C(C)C)C(=O)O [CEA.177]

SMILES: CC(C)C[C@H](NC(=O)[C@H](CC(N)=O)NC(=O)[C@H](CC(C)C)NC(=O)[C@H](CC(N)=O)NC(=O)[C@H](C)NC(=O)CNC(=O)[C@H](CO)NC(=O)[C@H](CC(C)C)NC(=O)[C@@H](N)Cc1ccc(O)cc1)C(=O)O [compound 605]
CTL Tumor ([1]; Table XXVIIa): 1/2
CTL Tumor ([1]; Table XXVIIb): 1/2
CTL Wildtype ([2]; Table XXVIIa): 2/2
CTL Wild-type ([2]; Table XXVIIb): 2/2

pIC50 (HLA-DRB1*0301 (DR3)): 5.64
SMILES: CC[C@H](C)[C@H](NC(=O)[C@@H](NC(=O)[C@H](Cc1c[nH]cn1)NC(=O)[C@@H](N)CC(C)C)C(C)C)C(=O)N[C@@H](CCCCN)C(=O)N[C@@H](CO)C(=O)N[C@@H](CC(=O)O)C(=O)N[C@@H](CC(C)C)C(=O)N[C@H](C(=O)N[C@@H](CC(N)=O)C(=O)N[C@@H](CCC(=O)O)C(=O)N[C@@H](CCC(=O)O)C(=O)N[C@@H](C)C(=O)N[C@H](C(=O)NCC(=O)O)[C@@H](C)O)C(C)C [CEA.122]

pIC50 (HLA-A*3301): 6.58
pIC50 (HLA-A*0301): 5.63
pIC50 (HLA-A*6801): 8.07
pIC50 (HLA-A*1101): 5.52
SMILES: CC(C)[C@H](NC(=O)[C@@H](N)[C@@H](C)O)C(=O)N[C@@H](CO)C(=O)N1CCC[C@H]1C(=O)N[C@@H](CO)C(=O)N[C@@H](Cc1ccc(O)cc1)C(=O)N[C@H](C(=O)N[C@@H](Cc1ccc(O)cc1)C(=O)N[C@@H](Cc1ccc(O)cc1)C(=O)N[C@@H](CCCNC(=N)N)C(=O)O)[C@@H](C)O [CEA.419.V2]

pIC50 (HLA-DRB1*0401; [3]): < 5.09
SMILES: CC[C@H](C)[C@H](NC(=O)[C@H](CC(N)=O)NC(=O)[C@@H](N)CCC(N)=O)C(=O)N[C@H](C(=O)N[C@@H](CCC(N)=O)C(=O)N[C@@H](CC(N)=O)C(=O)N[C@@H](CC(=O)O)C(=O)N[C@H](C(=O)NCC(=O)N[C@@H](Cc1ccccc1)C(=O)N[C@@H](Cc1ccc(O)cc1)C(=O)N[C@H](C(=O)N[C@@H](CC(C)C)C(=O)N[C@@H](Cc1c[nH]cn1)C(=O)N[C@H](C(=O)O)C(C)C)[C@@H](C)O)[C@@H](C)O)[C@@H](C)CC [CEA.110]

pIC50 (HLA-DRB1*0401; [3]): < 5.09
SMILES: CC(C)C[C@H](NC(=O)[C@H](CC(C)C)NC(=O)[C@@H](NC(=O)[C@H](CC(C)C)NC(=O)[C@@H](NC(=O)[C@H](CCCNC(=N)N)NC(=O)[C@H](CC(N)=O)NC(=O)[C@H](CC(=O)O)NC(=O)[C@H](CC(N)=O)NC(=O)[C@H](CO)NC(=O)[C@H](CC(C)C)NC(=O)[C@H](CCC(N)=O)NC(=O)[C@H](CC(C)C)NC(=O)[C@@H](N)CCCNC(=N)N)[C@@H](C)O)[C@@H](C)O)C(=O)N[C@@H](CO)C(=O)O [CEA.368]
